The results in this text go back to patent US20240270737A1, “SMALL MOLECULAR INHIBITORS OF STING SIGNALING COMPOSITIONS AND METHODS OF USE” (STINGINN INC., priority 2021, published 2024).

The subject of one assay is pIRF3, pSTING. Nature of the assay: Western blot of pIRF3, pSTING, pTBK1 after ISD transfection in hTERT cells. Type of assay: cell-based, human. The procedure: FIG. 1C are photographs showing Western blot analysis of STING, phospho-TBK1 (pTBK1) and phospho-IRF3 (pIRF3) performed at 6 hours after ISD transfection with/without W1 treatment same as FIG. 1A, Mock is shown (210), ISD treatment only (220) was used as a control, according to an embodiment of the invention;
Immunoblot analysis: Equal amounts of proteins were resolved on sodium dodecyl sulfate (SDS)-Polyacrylamide gels and then transferred to polyvinylidene fluoride (PVDF) membranes (Millipore). After blocking with 5% Blocking Reagent, membranes were incubated with various primary antibodies (and appropriate secondary antibodies). The image was resolved using an enhanced chemiluminescence system ECL (Thermo Scientific) and detected by autoradiography (Kodak). Antibodies: rabbit polyclonal antibody against STING was developed in our laboratory as described previously in Ishikawa et al, 2008; other antibodies were obtained from following sources: β-actin (Sigma Aldrich), p-IRF3 (Cell Signaling), IRF3 (Santa Cruz Biotechnology), p-p65 (Cell Signaling), p65 (Cell Signaling), p-TBK1 (Cell Signaling), TBK1 (Abcam), cGAS (Cell Signaling).
On the technique in general: In western blotting, separated proteins are transferred to a membrane and probed.

For assay [1], the system named is IFNβ expression (type I IFNβ promoter driving luciferase). Kind of assay: IFNβ promoter luciferase assay in hTERT-pIFNβ-Glu cells transfected with ISD. The format is cell-based, human. As for the experimental part: Inhibition of IFNβ expression was measured by Luciferase induction at 24 hours after transfection of ISD, DMSO is shown (230), ISD treatment only (220) was used as a control, according to an embodiment of the invention;
Inhibition of IFNβ expression was measured by Luciferase induction at 24 hours after transfection of ISD, Mock is shown (210), ISD treatment only (220) was used as a control, according to an embodiment of the invention;
Identification of small molecule inhibitors of STING. In the presence of cytosolic DNA species, STING becomes activated to drive the transcription of cytokines such as type I IFN. Compounds binding to STING via TSA were subsequently examined for their ability to prevent cytosolic DNA species from activating the type I interferon (IFN) promoter, using a live cell assay. This assay comprised immortalized human fibroblasts (hTERT) that were stably transfected with the type I IFN promoter driving luciferase as well as the CMV promoter driving SEAP (hTERT-pIFNβ-Glu). The live cell assay has previously been disclosed in PCT/US2019/025380 entitled IFN-Beta Reporter System for Immortalized Primary Cells inventor Glen N. Barber, which was filed Apr. 2, 2018 and published as WO2019195285, and which is herein incorporated by reference in its entirety and for all purposes. The ability of the small molecules to prevent activation of the type I IFN promoter and the transcription of luciferase, but not SEAP in response to cytosolic DNA species was assessed. The activation of STING, typically by CDNs, in turn activates the transcription factors NF-κB and IRF3, both of which are required to induce the transcriptional stimulation of the Type I IFN promoter, but not the CMV promoter as IRF3 and NF-kB transcription factor binding sites are not contained in the CMV promoter. The assay identified the small molecule Compound W1 in the first screen (HTS), where the level of luciferase was not able to activate the type I IFN promoter or induce the expression of luciferase (see Table I and Table II).
Inhibition of IFNβ expression was measured by Luciferase induction at 24 hours after transfection of ISD. ISD only treatment was used as control.
Inhibition of IFNβ expression was measured by Luciferase induction at 24 hours after transfection of ISD, Mock is shown (210), ISD treatment only (220) was used as a control.
Luciferase assay: hTERT-BJ1 Telomerase Fibroblasts stably expressing the luciferase gene under the control of the interferon-beta promoter and SEAP gene under control of the CMV promoter) (hTERT-pIFNβ-Glu) were generated by the Barber laboratory. Luciferase assay was performed using Secrete-Pair Dual Luminescence Assay Kit from GeneCopoeia following the manufacturer's protocol.

As a reminder, the inhibition is the drop in the measured response relative to a control, in per cent. Read a low inhibition as a response near the control. As to `Cc1cc([N+](=O)[O-])ccc1S(=O)(=O)Nc1nc2cc(C(F)(F)F)ccc2[nH]1` [Compound W1, 2-methyl-4-nitro-N-[5-(trifluoromethyl)-1H-1,3-benzodiazol-2-yl]benzene-1-sulfonamide], the inhibition at 10 µM with pIRF3, pSTING (Homo sapiens) was below 10%. Further, the “STING phosphorylation and TBK1 and IRF3 phosphorylation” value in the assay on pIRF3, pSTING (hTERT cells, 6 hours after ISD transfection) is on record as “robustly prevented”. In assay [1] (50 μM, 24 hours, ISD 3 μg/ml, hTERT-pIFNβ-Glu cells), the “activation of the type I IFN promoter in response to cytosolic DNA (luciferase)” value is on record as “inhibited activation of the type I IFN promoter”. The compound also gave an inhibition at 5 µM in assay [1] (Homo sapiens) of 4%.
